The record followed here is patent US8252820B2, “1-orthofluorophenyl substituted 1,2,5-thiazolidinedione derivatives as PTP-as inhibitors” (Novartis AG, priority 2005, dated 2012).

This assay concerns the target T1, human PTP-1B (Homo sapiens, UniProt P18031).
T1 construct: recombinant human PTP-1B[1-298] or PTP-1B[1-322]
T1 sequence (P18031 1-298 limits assumed): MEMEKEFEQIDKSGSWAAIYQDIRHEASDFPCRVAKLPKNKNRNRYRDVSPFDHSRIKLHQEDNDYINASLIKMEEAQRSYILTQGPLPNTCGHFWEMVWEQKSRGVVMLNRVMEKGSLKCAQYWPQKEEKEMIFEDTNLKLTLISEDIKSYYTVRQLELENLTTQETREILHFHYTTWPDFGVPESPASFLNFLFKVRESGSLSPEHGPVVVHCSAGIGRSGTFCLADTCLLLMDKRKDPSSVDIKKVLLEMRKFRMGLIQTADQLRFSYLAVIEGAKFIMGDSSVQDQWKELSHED
As to the kind of experiment: PTP-1B inhibitory activity in vitro (IC50). As to conditions: inhibitory activity to human PTP-1B. The format is biochemical. The method, then: Assessment of human PTP-1B (hPTP-1B) activity in the presence of various agents is determined by measuring the amount of inorganic phosphate released from a phosphopeptide substrate using a 96-well microtiter plate format. The assay (100 μL) is performed in an assay buffer comprised of 50 mM TRIS (pH 7.5), 50 mM NaCl, 3 mM DTT at ambient temperature. The assay is typically performed in the presence of 0.4% dimethyl sulfoxide (DMSO). However, concentrations as high as 10% are used with certain poorly soluble compounds. […] Inorganic phosphate, a product of the enzyme reaction, is quantitiated after 15 min as the green color resulting from complexing with the […] reagent and is determined as an A620 using a Molecular Devices (Sunnyvale, Calif.) SpectraMAX Plus spectrophotometer. […] Activity is defined as the net change in absorbance resulting from the activity of the uninhibited hPTP-1B[1-411] minus that of a tube with acid-inactivated hPTP-1B[1-411]. […] Alternatively, the assessment of human PTP-1B activity in the presence of various agents may be determined by measuring the hydrolysis products of known competing substrates. For example, cleavage of substrate para-nitrophenylphosphate (pNPP) results in the release of the yellow-colored para-nitrophenol (pNP) which can be monitored in real time using a spectrophotometer. […] Absorbance at 405 nm is measured using any standard 384 well plate reader. […]

Each structure is given as a SMILES string. pIC50: −log10 of the molar value. Where a name gives a salt, the structure may show the parent alone.

Take `O=C1CN(c2c(O)c(F)cc(F)c2F)S(=O)(=O)N1` [Example No. 26, 1,1-Dioxo-5-(2,3,6-trifluoro-6-hydroxy-phenyl)-1,2,5]thiadiazolidin-3-one potassium salt]: the pIC50 – broadly, the IC50 on a negative log10 scale, so that one unit is a factor of ten – is 6.80. To `O=C1CN(c2c(O)cc(CC3CCCCC3)cc2F)S(=O)(=O)N1` [Example No. 13, 5-(4-Cyclohexylmethyl-2-fluoro-6-hydroxyphenyl)-1,1-dioxo-1,2,5-thiadiazolidin-3-one] belongs 6.98.
